Assay results from patent US20240409585A1, “MACROCYCLIC IMMUNOMODULATORS” (priority 2021, published 2024).
Numbered stars: 1 amine (or outer) side, 2 acyl side, 3 side chain; on linkers, the order of the positions; unused ones are H or OH. Bridge positions count the residues as written; N and C are the ends. Square brackets hold non-standard residues; d marks the D form. Peptide text beside a SMILES is read from it. * marks the point of attachment. ξ: configuration not given here. Bip(4'-NHAc) = CC(=O)Nc1ccc(-c2ccc(C[C@H](N)C(=O)O)cc2)cc1; Phe(3-CF3) = N[C@@H](Cc1cccc(C(F)(F)F)c1)C(=O)O; Ala(morpholin-4-yl) = N[C@@H](CN1CCOCC1)C(=O)O; Phe(4-CONH2) = NC(=O)c1ccc(C[C@H](N)C(=O)O)cc1; Phe(4-COOH) = N[C@@H](Cc1ccc(C(=O)O)cc1)C(=O)O; Bip = N[C@@H](Cc1ccc(-c2ccccc2)cc1)C(=O)O; Abu(3R-NH2) = C[C@@H](N)[C@H](N)C(=O)O; Val(3-OH) = CC(C)(O)[C@H](N)C(=O)O; X11 = CC(N)[C@H](N[*:1])C(=O)[*:2]; Cha = N[C@@H](CC1CCCCC1)C(=O)O; aThr = C[C@H](O)[C@H](N)C(=O)O; Thr(3ξ) = CC(O)[C@H](N)C(=O)O; Suc = O=C(CCC(=O)[*:2])[*:1]; Propanoyl(3-OH) = O=C(CCO)*; Carboxymethyl = O=C(O)C*; NMeA = CN[C@@H](C)C(=O)O; Dab = NCC[C@H](N)C(=O)O; Dap = NC[C@H](N)C(=O)O

Each compound was assayed against T1, Alexa fluor-647 labeled human PD-L1-Ig binding to Jurkat cell line over-expressing human PD-1 (Homo sapiens, UniProt Q15116) (assay: Jurkat-PD-1 Cell Binding High-Content Screening Assay (CBA): Method 3 (Alexa fluor-647 labeled PD-L1-Ig)). Conditions: Jurkat-PD-1 cells, Alexa fluor-647 labeled PD-L1-Ig 177 nM; head μM; read-out: CBA Method 3 μM.
T1 construct: expressed in transfected cells; host or cells: Jurkat
Outline: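 Readout by high-content imaging of PFA-fixed, Hoechst-stained cells after 1 h with 177 nM (final) Alexa fluor-647 PD-L1-Ig. Compound was added first to hPD-1 Jurkat cells in RPMI plus 10% FCS for 2 h at 37 °C.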

T1 sequence (Q15116 25-288): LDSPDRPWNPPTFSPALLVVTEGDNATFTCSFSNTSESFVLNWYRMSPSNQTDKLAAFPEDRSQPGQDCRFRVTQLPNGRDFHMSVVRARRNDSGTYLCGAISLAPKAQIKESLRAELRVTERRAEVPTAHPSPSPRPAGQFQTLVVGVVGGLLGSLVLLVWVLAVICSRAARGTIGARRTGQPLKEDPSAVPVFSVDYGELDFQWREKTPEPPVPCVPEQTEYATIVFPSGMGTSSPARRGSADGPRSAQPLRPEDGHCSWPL

Row | IC50 | SMILES
1 | 0.01 µM | CC(C)C[C@H]1NC(=O)[C@H](C)N(C)C(=O)[C@H](Cc2ccc(C(N)=O)cc2)NC(=O)[C@H](Cc2ccc(-c3ccccc3)cc2)NC(=O)[C@H](Cc2ccc(OCC(=O)O)cc2)NC(=O)[C@H](Cc2cccc(C(F)(F)F)c2)NC(=O)[C@H](CC(=O)O)NC(=O)[C@H](Cc2ccc(C(=O)O)cc2)NC(=O)[C@H](C(C)N)NC(=O)CSC[C@@H](C(=O)N[C@@H](CCN)C(N)=O)NC(=O)[C@H](CO)NC(=O)[C@H](C(C)(C)O)NC(=O)[C@H](CC2CCCCC2)NC(=O)[C@H](CCN)NC1=O (stereo partly drawn) [Example 5147] ({CH2CO}-[X11][Phe(4-COOH)]D[Phe(3-CF3)]Y(Carboxymethyl)[Bip][Phe(4-CONH2)][NMeA][dL][Dab][Cha][Val(3-OH)]SC[Dab]-NH2; thioether N-14)
2 | 0.06 µM | CC(C)[C@@H]1NC(=O)[C@H](Cc2c[nH]c3ccccc23)NC(=O)[C@H](CC(=O)O)NC(=O)[C@H](Cc2ccc(O)cc2)NC(=O)[C@H](CC2CCCCC2)NC(=O)CSC[C@@H](C(=O)N[C@@H](CCN)C(N)=O)NC(=O)[C@H]([C@H](C)O)NC(=O)[C@H](C(C)(C)O)NC(=O)[C@H](CC2CCCCC2)NC(=O)[C@H](CCC(=O)O)NC(=O)[C@@H](C)NC(=O)[C@H](C)N(C)C(=O)[C@H](C(C)C)NC(=O)[C@H](Cc2ccc(-c3ccccc3)cc2)NC1=O [Example 5150] ({CH2CO}-[Cha]YDWV[Bip]V[NMeA][dA]E[Cha][Val(3-OH)][aThr]C[Dab]-NH2; thioether N-14)
3 | 0.07 µM | CC(=O)Nc1ccc(-c2ccc(C[C@@H]3NC(=O)[C@H](Cc4cccc(C(F)(F)F)c4)NC(=O)[C@H](CC(=O)O)NC(=O)[C@H](Cc4ccc(C(=O)O)cc4)NC(=O)[C@H](Cc4ccc(OCC(=O)O)cc4)NC(=O)CSC[C@@H](C(=O)N[C@@H](CCN)C(N)=O)NC(=O)[C@H](CCC(=O)O)NC(=O)[C@H](C(C)C)NC(=O)[C@H](CC4CCCCC4)NC(=O)[C@H](CCN)NC(=O)[C@@H](CC(C)C)NC(=O)[C@H](C)N(C)C(=O)[C@H](Cc4ccc(OCC(=O)O)cc4)NC(=O)[C@H](Cc4ccc(-c5ccccc5)cc4)NC3=O)cc2)cc1 [Example 5156] ({CH2CO}-Y(Carboxymethyl)[Phe(4-COOH)]D[Phe(3-CF3)][Bip(4'-NHAc)][Bip]Y(Carboxymethyl)[NMeA][dL][Dab][Cha]VEC[Dab]-NH2; thioether N-14)
4 | 0.04 µM | CC(=O)Nc1ccc(-c2ccc(C[C@@H]3NC(=O)[C@H](Cc4cccc(C(F)(F)F)c4)NC(=O)[C@H](CC(=O)O)NC(=O)[C@H](Cc4ccc(C(=O)O)cc4)NC(=O)[C@H](CN4CCOCC4)NC(=O)CSC[C@@H](C(=O)N[C@@H](CCN)C(N)=O)NC(=O)[C@H](CCC(=O)O)NC(=O)[C@H](C(C)C)NC(=O)[C@H](CC4CCCCC4)NC(=O)[C@H](CCN)NC(=O)[C@@H](CC(C)C)NC(=O)[C@H](C)N(C)C(=O)[C@H](Cc4ccc(C(=O)O)cc4)NC(=O)[C@H](Cc4ccc(-c5ccccc5)cc4)NC3=O)cc2)cc1 [Example 5159] ({CH2CO}-[Ala(morpholin-4-yl)][Phe(4-COOH)]D[Phe(3-CF3)][Bip(4'-NHAc)][Bip][Phe(4-COOH)][NMeA][dL][Dab][Cha]VEC[Dab]-NH2; thioether N-14)
5 | 0.04 µM | CC(=O)Nc1ccc(-c2ccc(C[C@@H]3NC(=O)[C@H](Cc4cccc(C(F)(F)F)c4)NC(=O)[C@H](CC(=O)O)NC(=O)[C@H](Cc4ccc(C(=O)O)cc4)NC(=O)[C@H]([C@@H](C)N)NC(=O)CSC[C@@H](C(=O)N[C@@H](CCN)C(N)=O)NC(=O)[C@H](CCC(=O)O)NC(=O)[C@H](C(C)C)NC(=O)[C@H](CC4CCCCC4)NC(=O)[C@H](CCN)NC(=O)[C@@H](CC(C)C)NC(=O)[C@H](C)N(C)C(=O)[C@H](Cc4ccc(C(=O)O)cc4)NC(=O)[C@H](Cc4ccc(-c5ccccc5)cc4)NC3=O)cc2)cc1 [Example 5160] ({CH2CO}-[Abu(3R-NH2)][Phe(4-COOH)]D[Phe(3-CF3)][Bip(4'-NHAc)][Bip][Phe(4-COOH)][NMeA][dL][Dab][Cha]VEC[Dab]-NH2; thioether N-14)

Same assay, conditions: Jurkat-PD-1 cells, Alexa fluor-647 labeled PD-L1-Ig 177 nM; nM; read-out: CBA Method 3

Row | SMILES | IC50
6 | CC(C)C[C@H]1NC(=O)[C@H](C)N(C)C(=O)[C@H](Cc2ccc(OCC(=O)O)cc2)NC(=O)[C@H](Cc2ccc(-c3ccccc3)cc2)NC(=O)[C@H](Cc2ccc(C(=O)O)cc2)NC(=O)[C@H](Cc2cccc(C(F)(F)F)c2)NC(=O)[C@H](CC(=O)O)NC(=O)[C@H](Cc2ccc(OCC(=O)O)cc2)NC(=O)[C@H](C(C)O)NC(=O)CSC[C@@H](C(=O)N[C@@H](CCN)C(N)=O)NC(=O)[C@H]([C@@H](C)O)NC(=O)[C@H](C(C)C)NC(=O)[C@H](CC2CCCCC2)NC(=O)[C@H](CCN)NC1=O (stereo partly drawn) [Example 5143] ({CH2CO}-[Thr(3ξ)]Y(Carboxymethyl)D[Phe(3-CF3)][Phe(4-COOH)][Bip]Y(Carboxymethyl)[NMeA][dL][Dab][Cha]VTC[Dab]-NH2; thioether N-14) | 0.007 µM
7 | CC(C)C[C@H]1NC(=O)[C@H](C)N(C)C(=O)[C@H](Cc2ccc(C(=O)O)cc2)NC(=O)[C@H](Cc2ccc(-c3ccccc3)cc2)NC(=O)[C@H](Cc2ccc(C(=O)O)cc2)NC(=O)[C@H](Cc2cccc(C(F)(F)F)c2)NC(=O)[C@H](CC(=O)O)NC(=O)[C@H](Cc2ccc(C(=O)O)cc2)NC(=O)[C@H](CN2CCOCC2)NC(=O)CSC[C@@H](C(=O)N[C@@H](CCN)C(N)=O)NC(=O)[C@H](CNC(=O)CCC(=O)O)NC(=O)[C@H](C(C)C)NC(=O)[C@H](CC2CCCCC2)NC(=O)[C@H](CCN)NC1=O [Example 5144] ({CH2CO}-[Ala(morpholin-4-yl)][Phe(4-COOH)]D[Phe(3-CF3)][Phe(4-COOH)][Bip][Phe(4-COOH)][NMeA][dL][Dab][Cha]V[Dap](Suc)C[Dab]-NH2; thioether N-14) | 0.0097 µM
8 | CC(=O)Nc1ccc(-c2ccc(C[C@@H]3NC(=O)[C@H](Cc4cccc(C(F)(F)F)c4)NC(=O)[C@H](CC(=O)O)NC(=O)[C@H](Cc4ccc(C(=O)O)cc4)NC(=O)[C@H](C(C)N)NC(=O)CSC[C@@H](C(=O)N[C@@H](CCN)C(N)=O)NC(=O)[C@H](CNC(=O)CCO)NC(=O)[C@H](C(C)C)NC(=O)[C@H](CC4CCCCC4)NC(=O)[C@H](CCN)NC(=O)[C@@H](CC(C)C)NC(=O)[C@H](C)N(C)C(=O)[C@H](Cc4ccc(C(N)=O)cc4)NC(=O)[C@H](Cc4ccc(-c5ccccc5)cc4)NC3=O)cc2)cc1 (stereo partly drawn) [Example 5148] ({CH2CO}-[X11][Phe(4-COOH)]D[Phe(3-CF3)][Bip(4'-NHAc)][Bip][Phe(4-CONH2)][NMeA][dL][Dab][Cha]V[Dap](Propanoyl(3-OH))C[Dab]-NH2; thioether N-14) | 0.0009 µM
9 | CC(=O)Nc1ccc(-c2ccc(C[C@@H]3NC(=O)[C@H](Cc4cccc(C(F)(F)F)c4)NC(=O)[C@H](CC(=O)O)NC(=O)[C@H](Cc4ccc(C(=O)O)cc4)NC(=O)[C@H](CN4CCOCC4)NC(=O)CSC[C@@H](C(=O)N[C@@H](CCN)C(N)=O)NC(=O)[C@H](CCC(=O)O)NC(=O)[C@H](C(C)C)NC(=O)[C@H](CC4CCCCC4)NC(=O)[C@H](CCN)NC(=O)[C@@H](CC(C)C)NC(=O)[C@H](C)N(C)C(=O)[C@H](Cc4ccc(C(=O)O)cc4)NC(=O)[C@H](Cc4ccc(-c5ccccc5)cc4)NC3=O)cc2)cc1 [Example 5149] ({CH2CO}-[Ala(morpholin-4-yl)][Phe(4-COOH)]D[Phe(3-CF3)][Bip(4'-NHAc)][Bip][Phe(4-COOH)][NMeA][dL][Dab][Cha]VEC[Dab]-NH2; thioether N-14) | 0.0059 µM

Further lines, results first:

Row | IC50 | SMILES
10 | 0.0063 µM | CC(=O)Nc1ccc(-c2ccc(C[C@@H]3NC(=O)[C@H](Cc4cccc(C(F)(F)F)c4)NC(=O)[C@H](CC(=O)O)NC(=O)[C@H](Cc4ccc(C(=O)O)cc4)NC(=O)[C@H]([C@@H](C)N)NC(=O)CSC[C@@H](C(=O)N[C@@H](CCN)C(N)=O)NC(=O)[C@H](CCC(=O)O)NC(=O)[C@H](C(C)C)NC(=O)[C@H](CC4CCCCC4)NC(=O)[C@H](CCN)NC(=O)[C@@H](CC(C)C)NC(=O)[C@H](C)N(C)C(=O)[C@H](Cc4ccc(C(=O)O)cc4)NC(=O)[C@H](Cc4ccc(-c5ccccc5)cc4)NC3=O)cc2)cc1 [Example 5154] ({CH2CO}-[Abu(3R-NH2)][Phe(4-COOH)]D[Phe(3-CF3)][Bip(4'-NHAc)][Bip][Phe(4-COOH)][NMeA][dL][Dab][Cha]VEC[Dab]-NH2; thioether N-14)
11 | 0.0005 µM | CC(=O)Nc1ccc(-c2ccc(C[C@@H]3NC(=O)[C@H](Cc4cccc(C(F)(F)F)c4)NC(=O)[C@H](CC(=O)O)NC(=O)[C@H](Cc4ccc(C(=O)O)cc4)NC(=O)[C@H]([C@@H](C)N)NC(=O)CSC[C@@H](C(=O)N[C@@H](CCN)C(N)=O)NC(=O)[C@H](CCC(=O)O)NC(=O)[C@H](C(C)C)NC(=O)[C@H](CC4CCCCC4)NC(=O)[C@H](CCN)NC(=O)[C@@H](CC(C)C)NC(=O)[C@H](C)N(C)C(=O)[C@H](Cc4ccc(OCC(=O)O)cc4)NC(=O)[C@H](Cc4ccc(-c5ccccc5)cc4)NC3=O)cc2)cc1 [Example 5162] ({CH2CO}-[Abu(3R-NH2)][Phe(4-COOH)]D[Phe(3-CF3)][Bip(4'-NHAc)][Bip]Y(Carboxymethyl)[NMeA][dL][Dab][Cha]VEC[Dab]-NH2; thioether N-14)
12 | 0.0025 µM | CC(=O)Nc1ccc(-c2ccc(C[C@@H]3NC(=O)[C@H](Cc4cccc(C(F)(F)F)c4)NC(=O)[C@H](CC(=O)O)NC(=O)[C@H](Cc4ccc(C(=O)O)cc4)NC(=O)[C@H](Cc4ccc(OCC(=O)O)cc4)NC(=O)CSC[C@@H](C(=O)N[C@@H](CCN)C(N)=O)NC(=O)[C@H](CCC(=O)O)NC(=O)[C@H](C(C)C)NC(=O)[C@H](CC4CCCCC4)NC(=O)[C@H](CCN)NC(=O)[C@@H](CC(C)C)NC(=O)[C@H](C)N(C)C(=O)[C@H](Cc4ccc(OCC(=O)O)cc4)NC(=O)[C@H](Cc4ccc(-c5ccccc5)cc4)NC3=O)cc2)cc1 [Example 5163] ({CH2CO}-Y(Carboxymethyl)[Phe(4-COOH)]D[Phe(3-CF3)][Bip(4'-NHAc)][Bip]Y(Carboxymethyl)[NMeA][dL][Dab][Cha]VEC[Dab]-NH2; thioether N-14)
